Assay results taken from paper PMC13393665, “Structure-based virtual screening identifies potential endogenous ligands of the human bitter taste receptor TAS2R46” (The Journal of Biological Chemistry, 2026).
Read-outs that look alike come from different tables or passages of the source.

Assays:
Experiment in all cases: Clytin II luminescence calcium assay, HEK293
Type in all cases: cell-based
TAS2R46 (hTAS2R46) [1] = molecular target: T1, TAS2R46 (hTAS2R46) (Homo sapiens, UniProt P59540)
T1 construct: full-length TAS2R46 with first 45 amino acids of SST3 fused at N-terminus; pEF-DEST51; transient in HEK293 with G-alpha16-gust44 and mitochondrial Clytin II
T1 sequence (P59540 1-309): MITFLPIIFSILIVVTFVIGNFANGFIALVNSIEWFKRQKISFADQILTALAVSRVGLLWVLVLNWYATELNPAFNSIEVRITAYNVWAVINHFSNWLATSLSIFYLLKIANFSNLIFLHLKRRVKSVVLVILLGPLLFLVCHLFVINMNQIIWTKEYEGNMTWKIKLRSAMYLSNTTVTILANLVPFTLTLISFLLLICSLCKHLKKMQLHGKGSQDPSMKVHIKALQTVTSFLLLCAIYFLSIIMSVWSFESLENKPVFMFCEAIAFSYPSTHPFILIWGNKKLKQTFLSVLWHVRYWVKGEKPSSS

TAS2R46 (hTAS2R46) [2] = molecular target: T1, TAS2R46 (hTAS2R46); conditions: agonist; G-alpha16-gust44 co-expressed; HBSS, 10 mM HEPES pH 7.4
TAS2R46 (hTAS2R46) [3] = molecular target: T1, TAS2R46 (hTAS2R46); conditions: agonist; G-alpha16-gust44 co-expressed; HBSS, 10 mM HEPES pH 7.4; remark: listed apart in the source

SMILES | threshold (TAS2R46 (hTAS2R46) [2]) | further results
C[C@]12CC[C@H]3[C@@H](CCC4=CC(=O)CC[C@@]43C)[C@@H]1CC[C@@H]2O [testosterone] |  | EC50 (TAS2R46 (hTAS2R46) [1]): 11.7 µM
CC(=O)[C@@]1(O)CC[C@H]2[C@@H]3CCC4=CC(=O)CC[C@]4(C)[C@H]3CC[C@@]21C [17-hydroxyprogesterone] |  | EC50 (TAS2R46 (hTAS2R46) [1]; read-out: EC50): 3.8 µM
C[C@]12CC[C@H]3[C@@H](CCC4=CC(=O)CC[C@@]43C)[C@@H]1CC[C@@H]2C(=O)CO [deoxycorticosterone] | cortisol and corticosterone showed lower potency than their metabolic intermediates, deoxycorticosterone and cortexolone, respectively | 
C[C@]12CCC(=O)C=C1CC[C@@H]1[C@@H]2[C@@H](O)C[C@@]2(C)[C@H]1CC[C@]2(O)C(=O)CO [cortisol] | cortisol and corticosterone showed lower potency than their metabolic intermediates, deoxycorticosterone and cortexolone, respectively | 
C[C@]12CCC(=O)C=C1CC[C@@H]1[C@@H]2CC[C@]2(C)C(=O)CC[C@@H]12 [androstenedione] | All candidate compounds, except estrone, elicited concentration-dependent responses in TAS2R46-expressing HEK293 cells | 
C[C@]12CCC(=O)C=C1CC[C@@H]1[C@@H]2CC[C@@]2(C)[C@H]1CC[C@]2(O)C(=O)CO [cortexolone] | cortisol and corticosterone showed lower potency than their metabolic intermediates, deoxycorticosterone and cortexolone, respectively | 
CC(=O)[C@H]1CC[C@H]2[C@@H]3CCC4=CC(=O)CC[C@]4(C)[C@H]3CC[C@]12C [progesterone] |  | EC50 (TAS2R46 (hTAS2R46) [1]; read-out: EC50): 7.9 µM
C[C@]12CC[C@@H]3c4ccc(O)cc4CC[C@H]3[C@@H]1CCC2=O [estrone] |  | Clytin II luminescence calcium assay, HEK293 (TAS2R46 (hTAS2R46) [3]): All candidate compounds, except estrone, elicited concentration-dependent responses
C[C@]12CC[C@H](O)CC1=CC[C@@H]1[C@@H]2CC[C@]2(C)C(=O)CC[C@@H]12 [dehydroepiandrosterone] |  | EC50 (TAS2R46 (hTAS2R46) [1]; read-out: EC50): 14.9 µM
C[C@]12CCC(=O)C[C@@H]1CC[C@@H]1[C@@H]2CC[C@]2(C)[C@@H](O)CC[C@@H]12 [dihydrotestosterone] | All candidate compounds, except estrone, elicited concentration-dependent responses in TAS2R46-expressing HEK293 cells | 
C[C@]12C[C@H](O)[C@H]3[C@@H](CCC4=CC(=O)CC[C@@]43C)[C@@H]1CC[C@@H]2C(=O)CO [corticosterone] | cortisol and corticosterone showed lower potency than their metabolic intermediates, deoxycorticosterone and cortexolone, respectively | 
